Tests used:
[1] = biological target: KCNQ2 (Homo sapiens, UniProt O43526); settings: cited from earlier work
[2] = biological target: T1, hKCNQ5 (Homo sapiens, UniProt Q9NR82); assay: two-electrode voltage-clamp of KCNQ5 currents in Xenopus oocytes; type: cell-based
T1 construct: A composite full-length cDNA construct was assembled from two overlapping cDNA clones and subcloned into the Xenopus expression vector pSGEM; expressed in transfected cells; host or cells: Xenopus laevis oocytes injected with in vitro transcribed capped cRNA (vector pSGEM)
Source text: A, representative current traces from a KCNQ5 injected oocyte subjected to a pulse protocol that stepped the membrane potential from holding potential (−100 mV) to test pulses from −100 to +50 mV and back to holding potential. B, I-V relationships for KCNQ5 expressing oocytes (n=12) recorded using the protocol in A. C, tail current reversal potential of KCNQ 5 currents as a function of extracellular K^+ concentration. The dashed line is drawn according to the Nernst equation for a perfectly selective K^+ channel (n=5). D, effects of TEA, clofilium, quinidine, and chromanol 293 B on KCNQ 5 current. Superimposed currents were obtained during a 3 s depolarizing step from −100 mV to 0 mV, during the same experiment. […]
Xenopus laevis oocytes were obtained from tricaine anaesthetized animals. […] Macroscopic currents were recorded 2-4 days after injection. […]
The possible function of KCNQ5 as a potassium channel was addressed by electrophysiological analysis of Xenopus oocytes injected with KCNQ5 cRNA transcribed in vitro. Two to four days after injection novel currents were detected that were not observed in water-injected control oocytes. […] The two components of deactivation were determined at a repolarizing voltage of −100 mV following a 3s depolarizing step to +40 mV. […]

[3] = biological target: KCNQ3 (Rattus norvegicus, UniProt O88944); settings: as reported; cited from earlier work
Sequence of KCNQ3 (O88944 whole entry): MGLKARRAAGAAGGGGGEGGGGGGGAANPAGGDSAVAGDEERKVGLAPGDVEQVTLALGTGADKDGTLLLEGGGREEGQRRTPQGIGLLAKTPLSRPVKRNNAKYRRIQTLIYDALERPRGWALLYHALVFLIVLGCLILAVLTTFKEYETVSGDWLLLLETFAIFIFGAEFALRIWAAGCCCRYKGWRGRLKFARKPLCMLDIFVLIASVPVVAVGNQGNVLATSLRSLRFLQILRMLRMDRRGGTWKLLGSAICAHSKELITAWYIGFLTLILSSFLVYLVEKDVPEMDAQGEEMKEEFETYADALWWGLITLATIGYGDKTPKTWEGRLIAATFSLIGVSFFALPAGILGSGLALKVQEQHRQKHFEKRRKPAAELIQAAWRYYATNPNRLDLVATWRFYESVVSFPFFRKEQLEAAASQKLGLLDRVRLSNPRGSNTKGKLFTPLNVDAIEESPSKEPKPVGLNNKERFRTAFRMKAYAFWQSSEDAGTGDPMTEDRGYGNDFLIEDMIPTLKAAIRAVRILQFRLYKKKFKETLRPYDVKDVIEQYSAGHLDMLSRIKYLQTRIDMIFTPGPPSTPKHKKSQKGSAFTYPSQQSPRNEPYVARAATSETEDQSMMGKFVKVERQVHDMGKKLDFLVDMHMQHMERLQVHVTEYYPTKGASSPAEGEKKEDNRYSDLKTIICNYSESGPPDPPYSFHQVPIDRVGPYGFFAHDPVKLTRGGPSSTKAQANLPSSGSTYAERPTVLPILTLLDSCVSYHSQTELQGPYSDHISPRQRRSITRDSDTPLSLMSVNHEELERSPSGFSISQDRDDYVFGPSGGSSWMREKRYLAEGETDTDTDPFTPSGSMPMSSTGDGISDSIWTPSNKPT

T1 sequence (Q9NR82 whole entry): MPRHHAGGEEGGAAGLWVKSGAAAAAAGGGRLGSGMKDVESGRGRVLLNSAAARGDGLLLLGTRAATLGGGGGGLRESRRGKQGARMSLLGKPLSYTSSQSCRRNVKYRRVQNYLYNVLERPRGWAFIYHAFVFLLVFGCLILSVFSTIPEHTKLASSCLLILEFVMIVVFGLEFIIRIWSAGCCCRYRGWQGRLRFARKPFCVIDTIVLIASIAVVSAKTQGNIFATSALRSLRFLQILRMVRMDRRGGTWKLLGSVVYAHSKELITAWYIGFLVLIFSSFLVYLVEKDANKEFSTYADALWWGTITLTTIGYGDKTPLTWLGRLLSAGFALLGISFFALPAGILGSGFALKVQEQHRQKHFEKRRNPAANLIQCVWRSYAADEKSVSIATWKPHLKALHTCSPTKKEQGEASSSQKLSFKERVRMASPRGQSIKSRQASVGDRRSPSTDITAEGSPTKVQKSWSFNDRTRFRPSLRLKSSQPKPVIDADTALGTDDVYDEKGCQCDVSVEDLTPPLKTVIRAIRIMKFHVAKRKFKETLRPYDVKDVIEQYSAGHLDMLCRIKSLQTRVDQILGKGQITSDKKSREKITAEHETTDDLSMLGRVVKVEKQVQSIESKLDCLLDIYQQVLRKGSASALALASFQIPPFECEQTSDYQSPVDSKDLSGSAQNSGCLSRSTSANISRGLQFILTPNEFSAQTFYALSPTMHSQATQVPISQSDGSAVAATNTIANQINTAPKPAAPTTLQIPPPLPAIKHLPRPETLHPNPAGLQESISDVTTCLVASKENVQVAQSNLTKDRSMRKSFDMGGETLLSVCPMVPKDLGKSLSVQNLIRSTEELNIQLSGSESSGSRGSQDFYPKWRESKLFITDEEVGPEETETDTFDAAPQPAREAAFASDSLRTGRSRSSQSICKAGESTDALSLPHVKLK
Sequence of KCNQ2 (O43526 whole entry): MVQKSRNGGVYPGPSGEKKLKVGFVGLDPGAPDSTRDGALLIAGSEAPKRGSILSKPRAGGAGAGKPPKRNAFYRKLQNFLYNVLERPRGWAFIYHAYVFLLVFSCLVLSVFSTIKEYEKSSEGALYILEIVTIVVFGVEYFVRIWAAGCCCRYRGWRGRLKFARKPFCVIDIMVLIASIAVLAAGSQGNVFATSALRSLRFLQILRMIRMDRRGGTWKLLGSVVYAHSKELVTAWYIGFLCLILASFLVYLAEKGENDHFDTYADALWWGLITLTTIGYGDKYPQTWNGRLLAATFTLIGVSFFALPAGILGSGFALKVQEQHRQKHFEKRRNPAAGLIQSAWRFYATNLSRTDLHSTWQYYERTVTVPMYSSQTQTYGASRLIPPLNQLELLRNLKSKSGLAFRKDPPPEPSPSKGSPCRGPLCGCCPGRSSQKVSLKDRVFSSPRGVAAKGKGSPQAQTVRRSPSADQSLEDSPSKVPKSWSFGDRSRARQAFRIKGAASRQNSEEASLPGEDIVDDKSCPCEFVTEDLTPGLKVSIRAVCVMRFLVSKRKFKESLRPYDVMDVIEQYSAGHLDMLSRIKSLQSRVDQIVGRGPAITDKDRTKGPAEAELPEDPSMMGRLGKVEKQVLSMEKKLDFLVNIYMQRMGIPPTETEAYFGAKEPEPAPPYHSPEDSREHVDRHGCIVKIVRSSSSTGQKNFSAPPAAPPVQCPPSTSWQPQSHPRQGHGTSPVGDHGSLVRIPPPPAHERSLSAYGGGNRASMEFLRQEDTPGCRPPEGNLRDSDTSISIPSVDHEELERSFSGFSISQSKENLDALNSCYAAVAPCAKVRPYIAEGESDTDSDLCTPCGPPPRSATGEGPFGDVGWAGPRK

CCCCCCC[N+](CC)(CC)CCCCc1ccc(Cl)cc1 [Clofilium]
inhibition of KCNQ2 ([1]; 10 μM): little inhibition

C=C[C@H]1C[N@@]2CC[C@H]1C[C@@H]2[C@@H](O)c1ccnc2ccc(OC)cc12 [quinidine]
block of KCNQ5 currents ([2]; 300 μM, 3 s step from −100 mV to 0 mV): 50%

CC[N+](CC)(CC)CC [TEA, tetraethylammonium]
sensitivity of KCNQ5 currents to the blocker [2]: insensitive
sensitivity of KCNQ3 to the blocker [3]: insensitive
sensitivity of KCNQ2 to the blocker [1]: high sensitivity

— patent US6617131B2, “Nucleic acid molecule encoding the potassium channel protein, KCNQ5” (Aventis Pharma Deutschland GmbH, priority 2000, dated 2003)
